Source: publication PMC12022909, “A Multicomponent Reaction-Based Platform Opens New Avenues in Aryl Hydrocarbon Receptor Modulation” (ACS Central Science, 2025)
Entries after “also recorded” stand apart in the source; their conditions may differ.

Legend:
[1] = biological target: T1, aryl hydrocarbon receptor (AhR) (Homo sapiens, UniProt P35869); assay: AhR/XRE-dependent luciferase reporter gene assay in XRE-HepG2 cells; type: cell-based; settings: XRE-HepG2 cells, 8 h; unit as in the supplements; read-out: AhR/XRE-dependent luciferase activity EC50
T1 construct: AhR-dependent reporter gene activity was determined in human HepG2 cells stably transfected with an XRE; endogenous in cells; host or cells: XRE-HepG2 (human HepG2 hepatoma cells stably carrying an XRE-luciferase plasmid)
T1 sequence (P35869 11-848): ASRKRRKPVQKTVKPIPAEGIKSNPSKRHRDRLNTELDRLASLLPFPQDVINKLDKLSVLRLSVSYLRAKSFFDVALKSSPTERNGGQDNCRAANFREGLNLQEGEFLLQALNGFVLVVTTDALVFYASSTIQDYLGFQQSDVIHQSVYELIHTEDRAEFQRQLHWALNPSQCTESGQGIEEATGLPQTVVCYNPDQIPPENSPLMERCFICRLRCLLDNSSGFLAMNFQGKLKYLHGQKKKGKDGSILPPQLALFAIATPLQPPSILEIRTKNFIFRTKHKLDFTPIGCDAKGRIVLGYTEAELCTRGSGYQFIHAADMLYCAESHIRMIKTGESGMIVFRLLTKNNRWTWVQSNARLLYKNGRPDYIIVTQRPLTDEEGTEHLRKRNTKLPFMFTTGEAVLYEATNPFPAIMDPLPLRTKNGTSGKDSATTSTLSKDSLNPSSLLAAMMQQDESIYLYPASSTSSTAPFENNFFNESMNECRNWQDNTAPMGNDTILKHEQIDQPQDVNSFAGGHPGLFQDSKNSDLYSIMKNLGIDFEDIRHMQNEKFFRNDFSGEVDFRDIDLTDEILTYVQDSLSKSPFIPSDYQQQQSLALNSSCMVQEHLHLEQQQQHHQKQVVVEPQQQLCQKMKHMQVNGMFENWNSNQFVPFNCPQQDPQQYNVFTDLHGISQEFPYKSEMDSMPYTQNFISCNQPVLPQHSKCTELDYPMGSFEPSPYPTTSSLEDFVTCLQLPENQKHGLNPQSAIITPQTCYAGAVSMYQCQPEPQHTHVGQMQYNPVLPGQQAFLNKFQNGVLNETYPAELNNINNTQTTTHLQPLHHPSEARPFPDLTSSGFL
Description: (f) AhR/XRE-dependent reporter gene activity results (EC50/μM).
Data are shown as mean ± SEM.
The human XRE -HepG2 reporter cell -line was a kind gift of K. Gradin and L. Poellinger (Karolinska Institute, Stockholm,
antibiotic/antimycotic solution, and 0.8 mg/ml G418. All cells were cultivated at 37 °C in a humidified atmosphere containing 5% CO 2.
AhR-dependent reporter gene activity was determined in human HepG2 cells stably transfected with an XRE -harboring luciferase plasmid (XRE-HepG2 cells). […] Luciferase activity was normalized to protein content.

[2] = test system: Jurkat cells; assay: Cell viability (Annexin V-APC, flow cytometry) in Jurkat cells; type: cell-based; settings: 24 h
Description: (§1) A phosphatidylserine exposure was used to determine cell viability. Cells were washed with PBS, pelleted, and then incubated with annexin binding buffer containing Annexin V-APC (Life Technologies) for 15 min in the dark. Then, samples were analyzed by flow cytometry using FACSCanto II and FACSDiva (BD Biosciences, Franklin Lakes, NJ, USA). Data represents the percentage of non - apoptotic cells (Ann -APC-).
(§2) The cytotoxicity of a selection of the synthesized compounds was assessed after 24 hours of treatment in two human cell lines, Jurkat and HEK293T, coming from either tumoral T-cell lymphocytes or non-tumoral embryonic kidney fibroblasts, respectively. […]
(§3) the pro-apoptotic activity was not significant below 10 µM for most compounds in both cell lines, except for 5i, 5k and 5l in both cell lines, as well as 9a in Jurkat and 5e HEK293T cells (Figure S35A-B).
(§4) Moreover, the cytotoxicity of compounds 4d, 5b, 5h, 8, 10, and 12d at a higher concentration (100 µM) was assessed in both cell lines, Jurkat and HEK293T. The cytotoxicity of compounds 5b, 5h, and 12d could not be properly tested as the compounds were not soluble […]
(§5) effects observed for compound 4d in Jurkat cells and compound 8 in HEK293T cells (Figure S35C).
(§6) Figure S35. A) Jurkat and B) HEK293T cells were treated with 1 and 10 µM doses of the corresponding compound for 24 hours. Indicated doses of fluorizoline were used as a positive control of cell death. C) Jurkat and HEK293T cells were treated with 100 µM of the corresponding compound for 24 hours. Viability was measured by flow cytometry, and it is expressed as the mean ± SEM (n = 3) of the percentage of non -apoptotic cells (Ann-APC-). * p < 0.05, ** p < 0.01 *** p < […]
(§7) (1 picture or pasted object on this page, not shown here)

[3] = test system: HEK293T cells; assay: Cell viability (Annexin V-APC, flow cytometry) in HEK293T cells; type: cell-based; settings: 24 h
Description: as §1, §2, §3, §4, §5, §6, §7

[4] = biological target: T2, AhR (Homo sapiens, UniProt P35869); assay: Western blot of AhR in MCF7 cells; type: cell-based; settings: 10 µM, 5 h
T2 construct: Degradation of endogenous AhR was further confirmed via Western blotting and global proteomics measurements in cells treated with 12b; host or cells: MCF7
T2 sequence (P35869 11-848): T1 sequence (P35869 11-848)
Description: Figure S30. Agonists induce degradation of AhR.
12b, 12c, and 12d at a concentration of 10 µM for 5h. The numbers on the Blot indicate the signal intensities of the bands relative to the Tubulin bands, normalized to DMSO treatment as quantified with Empiria Studio. […]
Cell culture and treatment […]
MCF7 cells were purchased from ATCC and grown in DMEM with 10% FCS and 1% penicillin/ streptomycin. […]
All cells were cultivated at 37 °C in a humidified atmosphere containing 5% CO 2.
Tapinarof (MedChemExpress, Monmouth Junction, NJ), benzo[a]pyrene (Sigma-Aldrich, Taufkirchen, Germany), TCDD (Amchro, Hattersheim am Main, Germany) and all compounds synthesized in this study were dissolved in dimethyl sulfoxide (DMSO; Roth). […]
Quantitative real-time PCR […]
• CYP1A1: […] (forward (5'>3')); […] (reverse (5'>3')).
• CYP1B1: […] (forward (5'>3')); […] (reverse (5'>3')).
• CCL26: […] (forward (5'>3')); […] (reverse (5'>3')).
• IL-19: […] (forward (5'>3')); […] (reverse (5'>3')).
• CXCL1: […] (forward (5'>3')); […] (reverse (5'>3')).
• β-actin: […] (forward (5'>3')); […] (reverse (5'>3')). […]
The assay was carried out as described earlier. Luciferase activity was normalized to protein content.
SDS-PAGE/Western blot analysis
Cells were lysed in RIPA buffer on ice and subsequently centrifuged for 15 min at 4 °C at maximum speed. Protein samples were separated by 10% and 12% SDS -polyacrylamide gel electrophoresis and blotted onto PVDF (GE Healthcare, Freiburg, Germany) or Nitrocellulose (BioRad #17 04158) membranes. Blots were blocked with 5% skim milk or bovine serum albumin in TBS -Tween-20 (0.1%) for or Intercept® (TBS) Blocking Buffer (LI -COR Biosciences) 1 h at room temperature and subsequently incubated overnight at 4 °C with primary antibodies. Blots were washed and then incubated for 1 h with a 1:5000 dilution of HRP -conjugated secondary antibodies in 5% bovine serum albumin in TBS -Tween-20 (0.1%) or anti-Mouse (Licor, IRDye® 680RD Goat anti -Mouse IgG, 1:10k dilution) or anti-Rabbit secondary antibody (Licor, IRDye® Goat anti -Rabbit IgG, 1:10k dilution) at room temperature. Bands were visualized using WesternBright ECL HRP substrate (Advansta, San Jose, CA) and a C -DiGit Western Blot Scanner (LI -COR Biotechnology, Lincoln, NE) or a Licor Odyssey CLx imager. Primary antibodies used in this study are as follows. AhR (Cat.No. 83200; Cell Signaling Technology, Leiden, The Netherlands). AIP (Cat.No. sc-59730; Santa Cruz Biotechnology, Dallas, TX). Cul4B (Cat.No. abx004735; Abbexa, Houston, TX). GAPDH (Cat.No. 2118; Cell Signaling Technology). Vinculin (Cat.No. 13901, Cell Signaling Technology). α - Tubulin (Abcam, ab7291, 1:10k dilution).
HaCaT-EV and HaCaT-shAhR cells were treated with either vehicle (DMSO) or 10 µM 12d for 0.5 h and 1 h. […]

[5] = test system: HaCaT cells; assay: UVA phototoxicity, caspase 3 activity in HaCaT cells; type: cell-based, human; settings: for UVA radiation-induced caspase activity (phototoxicity): HaCaT, 1 h, UVA 5 J/cm2
Description: Irradiation with UVA and caspase 3 activity measurement […]
culture media was exchanged with PBS and the cells were sham or UVA (5 J/cm2) irradiated using the BS-02 irradiation chamber (Opsytec Dr. Gröbel, Ettlingen Germany). Media was added to the cells and after 4 h incubation, caspase 3 activity was measured as described previously.[33] Protein quantification was done with the Bio-Rad DC protein assay kit (Bio-Rad Laboratories, Hercules, CA) according to the manufacturer protocol.
We compared the phototoxic potential of five of our test compounds (8, 10, 5b, 5h, 4b) as well as the FDA-approved AhR activator […]
induced caspase activity at a concentration of 100 nM (Figure S36A). At a 10-fold higher concentration (1 µM) two of the test compounds […]
Figure S36. […] For statistical analysis a two-way ANOVA (Tukey post-hoc) was performed and data are shown as mean ± SEM. (*, p ≤ 0.05). […]

[6] = Solubility in the growing media during cytotoxicity testing; type: physicochemical; settings: concentration of 100 µM
Description: as §1, §2, §3, §4, §5, §6, §7

With `Cn1c2ccccc2c2c(C3=C(O)CC(C)(C)CC3=O)c3c(cc21)c1ccccc1n3C` [4d] the EC50 [1] was 1310 nM, the “cytotoxicity / pro-apoptotic activity at 100 µM” value [2] was “slight cytotoxic effects” and the “cytotoxicity / pro-apoptotic activity at 100 µM” value [3] was “minimal pro-apoptotic activity”.

With `COc1ccc2[nH]cc(-c3c4[nH]c5ccccc5c4cc4[nH]c5ccccc5c34)c2c1` [5a] the AhR receptor proteolysis [4] was “induced receptor proteolysis” and the EC50 [1] was 600 nM.

In the case of `Cn1cc(-c2c3[nH]c4ccccc4c3cc3[nH]c4ccccc4c23)c2ccccc21` [5d], the AhR receptor proteolysis [4] is reported as “induced receptor proteolysis” and the EC50 [1] is reported as 380 nM.

With `Cc1[nH]c2ccccc2c1-c1c2[nH]c3ccc(F)cc3c2cc2[nH]c3ccc(F)cc3c12` [5k] the AhR receptor proteolysis [4] was “induced receptor proteolysis” and the EC50 [1] was 2740 nM.

With `CC(=O)Nc1ccccc1C(=O)c1c2[nH]c3ccccc3c2cc2[nH]c3ccccc3c12` [compound 10] the EC50 [1] was 260 nM, the “overlap between effective and toxic concentrations” value [5] was “minimal overlap” and the “UVA radiation-induced caspase activity (phototoxicity)” value ([5]; 100 nM) was “neither tapinarof nor our 6-ICZ compounds enhanced”. The “UVA radiation-induced caspase activity (phototoxicity)” value ([5]; 1 µM) was “did not show any signs of phototoxicity; also recorded: no phototoxicity”, the “cytotoxicity / pro-apoptotic activity at 100 µM” value [2] was “minimal pro-apoptotic activity” and the “solubility in the growing media” value [6] was “slight turbidity”. The “cytotoxicity / pro-apoptotic activity at 100 µM” value [3] was “minimal pro-apoptotic activity”.
